The test system of one assay is stromal keratocytes. Briefly: Loss of stromal keratocytes after surgical keratectomy (in vivo confocal corneal tomography, keratocyte counts). To be noted: for Percent keratocyte reduction from baseline: 35 μl topical TID, 80 μM histatin-1 (+100 μM peptide 6 in combination), mean±SD. Also on record: species or system New Zealand White rabbits. As for the experimental part: Twenty-four New Zealand White rabbits, approximately 4-6 months old and weighing 2-3 kg were divided into 3 groups of 8 animals and dosed topically three times per day (TID) for 28 days with either 35 μl Phosphate Buffered Saline (PBS), 35 μl 80 μM histatin-1 (Hst-1), or 35 μl 80 μM histatin-1+100 μM peptide 6 (P6) combination following unilateral surgical keratectomy procedure.
(§1) Animals were administered buprenorphine (0.01-0.05 mg/kg, SC) for pain control just prior to the procedure. A second dose of buprenorphine (0.01-0.05 mg/kg, SC) was administered in the evening, and then administered on an as needed basis. Animals was induced for surgery with a ketamine/xylazine cocktail (50 mg/kg ketamine and 10 mg/kg xylazine IM); anesthesia was maintained with isoflurane delivered in oxygen through a mask as needed. Following induction of anesthesia, 5% betadine solution, on autoclaved sterile gauze, was used to clean the periocular (eyelids) area of the surgical eye. Betadine was then used to irrigate the ocular surface and conjunctival cul-de-sac, which was then thoroughly irrigated with sterile eyewash. One drop each of 0.5% proparacaine HCl and 10% phenylephrine HCl, was then applied to the ocular surface for ocular anesthesia and mydriasis, respectively. The rabbit was positioned under an operating microscope and an eyelid speculum was affixed. An adjustable, 8 mm corneal vacuum trephine (Moria Surgical, Antony, France) was used to create a central corneal defect of approximately 10-25% stromal depth (approximately 100 μm). The trephined section of the cornea was removed, and the wound left open. Immediately following surgery, a single dose of topical antibiotic (Neomycin Polymyxin B Sulfates Gramicidin ophthalmic solution) was applied.
The corneas of anesthetized animals were imaged with a Heidelberg Retinal Tomograph fitted with a Rostock Corneal Module (HRT III RCM). This compact ophthalmic device uses confocal scanning laser microscopy to provide high-resolution en-face images of cornea cells and structures, including keratocytes subpopulations and the corneal sub-basal nerve plexus. Central cornea confocal scans from the epithelium to the endothelium were done and optical stacks of 400 μm×400 μm and 2 μm thick sections were generated and electronically stored for analysis.
A sampling region of the stack of optical scans was selected that corresponded to approximately 150 μm above the endothelium. This was done by counting 75 images up from the endothelium and selecting 5 adjacent images to serve as replicates. Keratocytes presented as reflective distinct irregular shaped objects. […] An unpaired Student's T test was used to compare the histatin-1 and the histatin-1+peptide 6 groups; p<0.05 was considered statistically significant.

Assay [1] deals with corneal endothelial cells. Description: Corneal endothelial cell density after surgical anterior keratectomy (corneal tomography). It is filed as in vivo, New Zealand White rabbits. To be noted: 35 μl 80 μM topical TID; for Percent endothelial cell density reduction from baseline: mean±SD. Here is the method:
Sixteen New Zealand White rabbits, approximately 4-6 months old and weighing 2-3 kg were divided into 2 groups of 8 animals and dosed topically three times per day (TID) for 28 days with either 35 μl phosphate buffered saline (PBS) or 35 μl 80 μM histatin-1 following unilateral surgical keratectomy procedure.
as §1, with “Animals were” for “Animals was”, “The rabbits were” for “The rabbit was”
The corneas of anesthetized animals were imaged with a Heidelberg Retinal Tomograph fitted with a Rostock Corneal Module (HRT III RCM). This compact ophthalmic device uses confocal scanning laser microscopy to provide high-resolution en-face images of cornea cells and structures, including corneal sub-basal nerve plexus, keratocytes subpopulations and the corneal endothelial cell layer. Central cornea confocal scans from the epithelium to the endothelium were done and optical stacks of 400×400 μm and 2 μm thick sections were generated and electronically stored for analysis.
The optical slice with the endothelium layer having the best resolution and largest coverage was selected. Of the 16 animals in the study, only 14 animals had scans with usable endothelial cell layers at 1 or more time points, and a maximum of only 4 usable scans at any single time point. The HRT III cell counting software was used to adjust image contrast and brightness to enhance manual cell counting within a selected region of interest (ROI). ROIs were >0.005 mm^2. Number of cells within a ROI ranged from 118-287. Partial cells (>½) at the edges of the ROI were counted only on 2 sides at right angles. The software computed endothelial cell density as cells/mm^2 based on manual counts in the selected ROI. Data are presented as mean±standard deviation cells/mm^2. An unpaired Student's T test was used to compare the PBS and histatin-1 groups at each follow-up time point; p<0.05 was considered statistically significant.

In a further assay the test system is corneal nerves. Briefly: Corneal nerve regeneration after surgical anterior keratectomy (Tuj1 wholemount immunohistochemistry). To be noted: Day 28; 35 μl topical TID, 80 μM histatin-1 (+100 μM peptide 6); mean±SD. It is filed as in vivo, New Zealand White rabbits. Here is the method: Twelve New Zealand White rabbits, approximately 4-6 months old and weighing 2-3 kg were divided into 3 groups of 4 animals and dosed topically three times per day (TID) for 28 days with either 35 μl phosphate buffered saline (PBS), 35 μl 80 μM histatin-1 or 35 μl of 80 μM histatin-1+100 μM peptide 6 following a unilateral surgical keratectomy procedure.
Animals were administered buprenorphine (0.01-0.05 mg/kg, SC) for pain control just prior to the procedure. A second dose of buprenorphine (0.01-0.05 mg/kg, SC) was administered in the evening, and then administered on an as needed basis. Animals were induced for surgery with a ketamine/xylazine cocktail (50 mg/kg ketamine and 10 mg/kg xylazine IM); anesthesia was maintained with isoflurane delivered in oxygen through a mask as needed. Following induction of anesthesia, 5% betadine solution, on autoclaved sterile gauze, was used to clean the periocular (eyelids) area of the surgical eye. […]
While corneas were incubating in their final wash, slides with imaging spacers were prepared. A 0.36, 0.6 mm or combination of the two adhesive imaging spacers (Grace Biolabs cat #SA-S-3L; custom cut to 22×40 mm rectangle with an oblong window cut out) was adhered to a glass slide; spacer thickness was determined by corneal thickness measured on the day of necropsy for treated eyes; control corneas utilized a 0.36 mm spacer. […]

In assay [2] the test system is endothelial cells in human non-surgical cornea buttons. Description: Corneal button preservation under stressed storage conditions (trypan blue staining). In kind it is cell-based. Particulars: 1 μM in standard cornea storage media. Here is the method: The effect of 1 μM histatin-1 formulated in Life4° C.™ or Optisol™ Corneal Storage Medium was assessed on the preservation of endothelial cells in 9 pairs of human non-surgical cornea buttons stored under stressed conditions. The tissues were individually stored in 20 mL Bausch & Lomb™ Cornea Tissue Viewing Chambers at room temperature (24±2° C.) for 6 to 14 days, preceded by storage at 4° C. for 3 days. All doners were White/Caucasian origin. The median age was 64 years and ranged from 14 to 73. The amount of time from the time of death to the preservation of the corneas ranged from 4 hours 15 mins to 20 hours 48 mins. Endothelial cell counts at the time of tissue harvest was 2222±240 cells/mm^2. Histatin-1 was added every other day to the right eye (OD) in a volume of 200 μL in an amount sufficient to maintain a concentration of 1 μM. Left eyes (OS) were given an equal volume of PBS. Endothelial cell viability was assessed by trypan blue staining as non-viable area expressed as a percentage of 80% of the central cornea. Briefly, cornea buttons were transferred from storage chambers to viewing wells (Barron Punch Cutting Block), endothelium side up, and 0.06% trypan blue in a volume sufficient to cover the endothelial layer limbus to limbus was applied and left for 90 secs, and then rinsed twice with PBS. […]

The values that follow come from patent publication US20250276038A1, “HISTATIN COMBINATIONS AND METHODS FOR TREATING OR INHIBITING CELL LOSS” (VISUS THERAPEUTICS, INC., priority 2021, published 2025).

Where no end group is shown, it is not given here.

Take “DSHEKRHHGYRRKFHEKHHSHREFPFYGDYGSNYLYDN [histatin-1]”: in the assay on stromal keratocytes (35 μl topical TID after keratectomy), the “Complete recovery of keratocytes by Day” value was at most 28 days. In addition, the “Percent keratocyte reduction from baseline” value in the assay on stromal keratocytes (Day 7) is 40.2±3.3%; with stromal keratocytes (Day 10), 37.5±2.4%; with stromal keratocytes (Day 14), 32.7±15.3%; in the assay with stromal keratocytes (Day 21) it was 26.5±6.0%; with stromal keratocytes (Day 28) it was 2.7±13%. Besides, the “Recovery and apparent normalization of endothelial cell density starting by Day” value in assay [1] was at most 10 days. The “Percent endothelial cell density reduction from baseline” value is 15.1±2.8% in assay [1] (Day 7); 1.1±9.1% in assay [1] (Day 10); −0.2±5.9% in assay [1] (Day 14); 4.5±7.8% in assay [1] (Day 21); 7.4±2.8% in assay [1] (Day 28). Also, in the assay with corneal nerves, the “Area of nerve regeneration” value came to 26.1±7 mm^2. For the same sequence, the “Area of nerve regeneration as percent of initial 8 mm lesion area (50.3 mm^2)” value with corneal nerves was found to be 51.9±14%. For the same sequence, in assay [2], the “Reduction of stained area in the endothelial area versus PBS” value worked out at 45%.
